{"source": "ChEMBL document CHEMBL1201862", "about": "“PubChem BioAssay data set” (2004)", "key": {"[1]": {"target": "Prothrombin (Homo sapiens, UniProt P00734)", "experiment": "Thrombin 1536 HTS Dose Response Confirmation. [Related pubchem assays: 1046 (Thrombin 1536 HTS; hits were confirmed in this assay)]", "assay_type": "functional"}, "[2]": {"experiment": "cytotoxicity toward NIH3T3 fibroblasts, dose response, counter-screen, cell-based, ATP luminescence, mouse fibroblasts (AID 2010);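 further: cells exposed to compound for about 90 hours before reading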", "assay_type": "functional"}, "[3]": {"target": "Cytochrome P450 2C19 (Homo sapiens, UniProt P33261)", "sequence (P33261 whole entry)": "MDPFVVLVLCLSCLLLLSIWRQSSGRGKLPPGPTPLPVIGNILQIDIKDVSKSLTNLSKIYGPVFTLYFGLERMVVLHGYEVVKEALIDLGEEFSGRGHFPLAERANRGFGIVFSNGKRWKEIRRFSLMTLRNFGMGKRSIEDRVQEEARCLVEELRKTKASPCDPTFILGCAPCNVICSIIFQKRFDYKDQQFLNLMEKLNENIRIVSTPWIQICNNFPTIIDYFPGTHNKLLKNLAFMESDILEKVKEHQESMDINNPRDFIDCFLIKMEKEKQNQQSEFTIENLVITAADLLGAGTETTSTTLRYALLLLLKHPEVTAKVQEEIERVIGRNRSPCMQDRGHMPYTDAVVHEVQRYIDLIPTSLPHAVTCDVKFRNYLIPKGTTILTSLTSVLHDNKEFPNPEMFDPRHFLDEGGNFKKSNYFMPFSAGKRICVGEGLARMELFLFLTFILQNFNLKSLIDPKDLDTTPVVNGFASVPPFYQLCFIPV", "experiment": "Cytochrome panel assay with activity outcomes. Panel member name: p450-cyp2c19 Compounds with AC50 equal or less than 10 uM are considered active", "assay_type": "functional", "conditions": "read-out: AC50"}, "[4]": {"experiment": "insulin promoter down-regulators in MIN6 cells, imaging, high-content screening, mouse beta cells (AID 1628)", "assay_type": "functional"}, "[5]": {"experiment": "cytotoxicity in MIN6 insulinoma cells, dose response, cytotoxicity control, cell-based, mouse insulinoma (AID 2122);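 further: confirmatory high-throughput counterscreen run to flag cytotoxic compounds; mouse MIN-6 beta cells carrying an insulin promoter eGFP reporter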", "assay_type": "functional"}, "[6]": {"target": "T1, Cytochrome P450 1A2 (Homo sapiens, UniProt P05177)", "T1 sequence (P05177 whole entry)": "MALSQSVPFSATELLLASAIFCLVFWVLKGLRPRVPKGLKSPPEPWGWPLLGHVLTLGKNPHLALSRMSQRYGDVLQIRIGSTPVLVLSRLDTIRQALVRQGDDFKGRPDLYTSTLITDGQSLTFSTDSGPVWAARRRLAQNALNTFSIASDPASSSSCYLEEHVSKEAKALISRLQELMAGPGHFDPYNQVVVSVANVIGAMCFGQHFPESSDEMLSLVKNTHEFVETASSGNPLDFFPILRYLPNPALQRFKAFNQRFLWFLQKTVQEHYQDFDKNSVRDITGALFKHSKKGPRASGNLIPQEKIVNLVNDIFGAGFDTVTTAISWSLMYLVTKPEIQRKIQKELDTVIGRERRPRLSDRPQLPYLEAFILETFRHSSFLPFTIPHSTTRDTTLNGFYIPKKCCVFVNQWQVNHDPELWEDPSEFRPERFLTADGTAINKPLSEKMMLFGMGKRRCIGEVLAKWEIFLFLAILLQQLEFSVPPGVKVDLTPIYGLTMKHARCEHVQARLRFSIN"}, "[7]": {"target": "Cytochrome P450 2C9 (Homo sapiens, UniProt P11712)", "sequence (P11712 whole entry)": "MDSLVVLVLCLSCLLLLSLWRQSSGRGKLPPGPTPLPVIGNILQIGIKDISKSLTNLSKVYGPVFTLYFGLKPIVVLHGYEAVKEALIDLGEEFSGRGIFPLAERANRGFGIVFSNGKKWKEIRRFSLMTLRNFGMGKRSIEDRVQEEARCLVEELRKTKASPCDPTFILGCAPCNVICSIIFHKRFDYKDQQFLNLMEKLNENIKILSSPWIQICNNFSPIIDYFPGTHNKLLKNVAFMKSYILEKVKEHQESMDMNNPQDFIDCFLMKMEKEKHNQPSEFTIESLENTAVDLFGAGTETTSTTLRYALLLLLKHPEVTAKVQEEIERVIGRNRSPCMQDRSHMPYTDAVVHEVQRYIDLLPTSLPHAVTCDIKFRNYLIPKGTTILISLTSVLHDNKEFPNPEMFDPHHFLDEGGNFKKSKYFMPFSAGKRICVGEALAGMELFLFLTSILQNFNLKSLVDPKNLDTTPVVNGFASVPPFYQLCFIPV"}, "[8]": {"experiment": "inhibitors of intracellular T. cruzi replication, confirmation, NIH3T3 host cells, beta-gal luminescence (AID 2044);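 further: luminescent beta-galactosidase reporter signal from transgenic T. cruzi replicating inside host cells; inhibitors lower the luminescence signal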", "assay_type": "functional, cell-based"}, "[9]": {"target": "Cytochrome P450 3A4 (Homo sapiens, UniProt P08684)", "sequence (P08684 whole entry)": "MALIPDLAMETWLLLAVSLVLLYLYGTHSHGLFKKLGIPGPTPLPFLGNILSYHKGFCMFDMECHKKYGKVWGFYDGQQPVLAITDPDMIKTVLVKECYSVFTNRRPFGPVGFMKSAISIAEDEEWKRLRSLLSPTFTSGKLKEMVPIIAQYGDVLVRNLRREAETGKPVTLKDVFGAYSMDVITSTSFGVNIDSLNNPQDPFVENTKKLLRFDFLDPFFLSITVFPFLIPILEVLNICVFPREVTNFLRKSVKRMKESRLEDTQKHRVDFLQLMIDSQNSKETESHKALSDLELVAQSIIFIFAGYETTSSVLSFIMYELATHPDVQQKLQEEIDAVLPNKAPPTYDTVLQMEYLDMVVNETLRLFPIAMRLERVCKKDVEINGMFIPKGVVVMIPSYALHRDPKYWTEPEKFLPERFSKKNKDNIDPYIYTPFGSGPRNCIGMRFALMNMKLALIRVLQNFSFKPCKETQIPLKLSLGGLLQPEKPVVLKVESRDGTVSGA"}, "[10]": {"experiment": "microbe, parasite or virus in culture", "assay_type": "functional", "conditions": "Mycobacterium tuberculosis"}, "[11]": {"target": "T2, Adenosylmethionine-8-amino-7-oxononanoate aminotransferase (Mycobacterium tuberculosis, UniProt P9WQ81)", "T2 sequence (P9WQ81 whole entry)": "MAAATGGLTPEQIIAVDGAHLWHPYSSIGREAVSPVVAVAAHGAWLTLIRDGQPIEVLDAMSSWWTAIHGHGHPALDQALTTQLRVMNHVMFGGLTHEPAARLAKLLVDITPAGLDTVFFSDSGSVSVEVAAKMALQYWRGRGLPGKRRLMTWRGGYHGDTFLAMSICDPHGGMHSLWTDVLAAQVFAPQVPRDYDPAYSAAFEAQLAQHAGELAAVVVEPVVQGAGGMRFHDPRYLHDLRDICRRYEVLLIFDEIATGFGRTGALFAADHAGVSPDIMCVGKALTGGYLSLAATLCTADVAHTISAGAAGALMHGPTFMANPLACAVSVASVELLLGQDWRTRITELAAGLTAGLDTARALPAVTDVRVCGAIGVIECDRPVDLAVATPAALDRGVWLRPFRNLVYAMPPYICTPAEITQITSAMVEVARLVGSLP", "experiment": "Mycobacterium tuberculosis BioA enzyme inhibitor Measured in Biochemical System Using Plate Reader - 2163-02_Inhibitor_Dose_CherryPick_Activity.", "assay_type": "functional, Mycobacterium tuberculosis UT205"}, "[12]": {"target": "Ras and Rab interactor 1/Tyrosine-protein kinase ABL1 (Homo sapiens, UniProt P00519+Q13671)", "sequence (P00519 whole entry)": "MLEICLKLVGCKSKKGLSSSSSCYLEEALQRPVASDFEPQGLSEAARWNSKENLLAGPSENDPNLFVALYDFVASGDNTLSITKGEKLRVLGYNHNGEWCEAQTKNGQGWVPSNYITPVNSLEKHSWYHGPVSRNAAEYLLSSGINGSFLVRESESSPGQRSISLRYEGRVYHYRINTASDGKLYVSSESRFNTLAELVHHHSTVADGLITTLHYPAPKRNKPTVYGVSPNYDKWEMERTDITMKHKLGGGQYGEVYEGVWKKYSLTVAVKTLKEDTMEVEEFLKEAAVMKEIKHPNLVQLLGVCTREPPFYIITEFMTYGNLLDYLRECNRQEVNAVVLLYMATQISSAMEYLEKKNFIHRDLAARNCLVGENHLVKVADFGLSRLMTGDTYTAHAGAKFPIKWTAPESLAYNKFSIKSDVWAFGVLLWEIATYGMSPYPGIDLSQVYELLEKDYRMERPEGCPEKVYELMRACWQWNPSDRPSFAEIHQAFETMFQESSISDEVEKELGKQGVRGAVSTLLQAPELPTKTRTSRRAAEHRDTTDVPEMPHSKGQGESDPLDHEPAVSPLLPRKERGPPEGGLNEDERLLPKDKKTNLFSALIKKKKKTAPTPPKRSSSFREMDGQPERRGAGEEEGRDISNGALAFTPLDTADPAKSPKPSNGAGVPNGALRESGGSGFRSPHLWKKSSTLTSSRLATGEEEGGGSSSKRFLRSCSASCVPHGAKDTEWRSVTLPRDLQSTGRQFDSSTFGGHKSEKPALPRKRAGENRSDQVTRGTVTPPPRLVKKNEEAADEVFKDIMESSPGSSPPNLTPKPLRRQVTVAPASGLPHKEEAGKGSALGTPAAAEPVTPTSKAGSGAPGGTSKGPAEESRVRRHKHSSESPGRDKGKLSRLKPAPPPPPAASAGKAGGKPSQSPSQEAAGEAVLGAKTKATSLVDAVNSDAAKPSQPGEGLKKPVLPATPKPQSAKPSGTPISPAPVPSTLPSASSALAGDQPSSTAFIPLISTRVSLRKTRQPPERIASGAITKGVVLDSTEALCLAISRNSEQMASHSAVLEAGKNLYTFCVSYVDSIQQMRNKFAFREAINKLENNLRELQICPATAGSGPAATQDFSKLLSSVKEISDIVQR", "sequence (Q13671 whole entry)": "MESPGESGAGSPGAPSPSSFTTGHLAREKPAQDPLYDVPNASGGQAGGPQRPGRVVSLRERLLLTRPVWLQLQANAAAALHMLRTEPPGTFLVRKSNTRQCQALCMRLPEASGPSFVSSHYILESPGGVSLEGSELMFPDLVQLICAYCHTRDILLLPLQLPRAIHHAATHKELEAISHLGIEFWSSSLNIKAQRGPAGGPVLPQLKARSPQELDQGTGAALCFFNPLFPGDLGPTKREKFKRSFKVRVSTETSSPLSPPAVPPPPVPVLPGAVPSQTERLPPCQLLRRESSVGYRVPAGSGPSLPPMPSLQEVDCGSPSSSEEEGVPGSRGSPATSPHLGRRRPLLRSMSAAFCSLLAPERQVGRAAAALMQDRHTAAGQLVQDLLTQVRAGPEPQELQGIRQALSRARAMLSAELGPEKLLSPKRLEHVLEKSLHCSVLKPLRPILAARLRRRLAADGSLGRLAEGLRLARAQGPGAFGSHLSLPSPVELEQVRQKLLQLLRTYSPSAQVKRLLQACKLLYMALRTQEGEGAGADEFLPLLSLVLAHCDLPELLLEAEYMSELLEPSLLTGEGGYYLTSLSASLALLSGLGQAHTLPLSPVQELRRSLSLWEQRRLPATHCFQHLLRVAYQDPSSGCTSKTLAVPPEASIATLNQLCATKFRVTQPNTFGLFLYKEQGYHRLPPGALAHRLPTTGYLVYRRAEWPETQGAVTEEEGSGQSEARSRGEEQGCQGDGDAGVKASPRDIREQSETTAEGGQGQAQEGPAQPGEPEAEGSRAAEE", "assay_type": "functional"}, "[13]": {"target": "Dual specificity protein kinase CLK1 (Homo sapiens, UniProt P49759)", "sequence (P49759 whole entry)": "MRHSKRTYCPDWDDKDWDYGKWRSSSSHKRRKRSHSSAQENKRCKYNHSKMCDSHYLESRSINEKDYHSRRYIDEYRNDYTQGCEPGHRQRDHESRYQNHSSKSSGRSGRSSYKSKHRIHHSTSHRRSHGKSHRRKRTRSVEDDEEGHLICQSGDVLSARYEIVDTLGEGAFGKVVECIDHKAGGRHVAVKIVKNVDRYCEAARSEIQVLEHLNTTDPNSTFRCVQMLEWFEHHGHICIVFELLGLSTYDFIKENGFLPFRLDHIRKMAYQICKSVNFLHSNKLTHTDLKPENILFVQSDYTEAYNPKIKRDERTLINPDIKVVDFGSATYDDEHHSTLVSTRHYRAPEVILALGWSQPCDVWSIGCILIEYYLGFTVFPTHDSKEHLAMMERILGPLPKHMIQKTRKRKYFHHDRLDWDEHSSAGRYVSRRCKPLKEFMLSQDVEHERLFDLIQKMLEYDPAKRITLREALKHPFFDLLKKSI", "experiment": "CLK1 kinase inhibitors, off-target check, dose response, selectivity assay for Dyrk1A inhibitor project, biochemical, cherry-picked samples (AID 588811)"}, "[14]": {"target": "Glucose-6-phosphate 1-dehydrogenase (Homo sapiens, UniProt P11413)", "sequence (P11413 whole entry)": "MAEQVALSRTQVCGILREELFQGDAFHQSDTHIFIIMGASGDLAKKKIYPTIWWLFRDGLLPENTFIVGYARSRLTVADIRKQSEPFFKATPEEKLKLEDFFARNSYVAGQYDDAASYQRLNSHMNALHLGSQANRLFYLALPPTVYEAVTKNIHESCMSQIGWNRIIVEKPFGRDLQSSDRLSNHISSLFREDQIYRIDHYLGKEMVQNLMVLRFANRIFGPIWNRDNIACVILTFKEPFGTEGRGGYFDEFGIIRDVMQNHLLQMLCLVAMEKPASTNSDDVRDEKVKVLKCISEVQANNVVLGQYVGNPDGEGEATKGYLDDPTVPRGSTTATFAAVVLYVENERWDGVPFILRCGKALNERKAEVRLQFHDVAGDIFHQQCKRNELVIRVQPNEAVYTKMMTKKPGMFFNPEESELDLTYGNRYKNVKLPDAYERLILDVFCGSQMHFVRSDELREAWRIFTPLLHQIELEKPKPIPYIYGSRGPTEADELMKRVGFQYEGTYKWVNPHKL", "experiment": "human G6PD enzyme inhibitors, dose response, selectivity assay for P. falciparum G6PD inhibitor project, biochemical, fluorescence (AID 504792)", "assay_type": "functional"}}, "note": "Active and inactive are the calls of the source."}
{"smiles": "COc1ccc(-c2c[n+]3c4n2CCCCC4=C(c2ccccc2)C3)cc1", "values": [{"measurement": "IC50", "setting": "[1]", "result": "> 50 µM (not active)"}, {"measurement": "EC50", "setting": "[2]", "result": "> 60 µM (not active)"}, {"measurement": "AC50", "setting": "[3]", "result": "3.55 µM (inconclusive)"}, {"measurement": "IC50", "setting": "[4]", "result": "> 16 µM (inactive)"}, {"measurement": "IC50", "setting": "[5]", "result": "2.76 µM (active)"}, {"measurement": "AC50", "setting": "[6]", "result": "28.2 µM (inconclusive)"}, {"measurement": "AC50", "setting": "[7]", "result": "0.0316 µM (inconclusive)"}, {"measurement": "EC50", "setting": "[8]", "result": "0.169 µM (active)"}, {"measurement": "AC50", "setting": "[9]", "result": "3.16 µM (inconclusive)"}, {"measurement": "CC50", "setting": "[10]", "result": "28.1 µM (active)"}]}
{"smiles": "Cc1ccccc1-n1c(SCC(=O)N(C)C2CCS(=O)(=O)C2)nc2ccccc2c1=O", "note": "(configuration not stated)", "values": [{"measurement": "AC50", "setting": "[11]", "result": "2.39 µM (active)"}]}
{"smiles": "COc1ccc(Cc2c(-c3ccc(OC)c(OC)c3)nc3ccc(C)cn23)c(C)c1", "values": [{"measurement": "AC50", "setting": "[11]", "result": "2.73 µM (active)"}]}
{"smiles": "COC(=O)c1ccc(CSc2nnc(-c3ccccc3)n2C)o1", "values": [{"measurement": "IC50", "setting": "[12]", "result": "14.1 µM (inactive)"}]}
{"smiles": "Clc1ccc(CNc2ccnc(-c3ccc4[nH]ncc4c3)n2)cc1Cl", "values": [{"measurement": "AC50", "setting": "[13]", "result": "0.00784 µM (active)"}]}
{"smiles": "CCCOc1ccc(/C=C/C(=O)N2CCN(C(=O)c3ccco3)CC2)cc1OC", "values": [{"measurement": "IC50", "setting": "[12]", "result": "> 73.5 µM (inactive)"}]}
{"smiles": "COC(=O)C[C@H]1CC[C@@H]2[C@H](COC[C@@H](O)CN2C(=O)Nc2cccc(F)c2)O1", "values": [{"measurement": "AC50", "setting": "[11]", "result": "13.7 µM (active)"}]}
{"smiles": "Cc1ccccc1OCC(=O)N/N=C/c1ccc(Sc2nc3ccccc3s2)o1", "values": [{"measurement": "IC50", "setting": "[14]", "result": "> 80 µM (inactive)"}]}
